# From patent US4508730A, “1,7-Dihydro-pyrrolo[3,4-e][1,4]diazepin-2(3H)-one derivatives a process for preparing them and their use as anticonvulsant and anti-anxiety agents” (Gruppo Lepetit S.p.A., priority 1982, dated 1985)
# Counter-ions that a name gives are not always drawn.
# Key:
# [1] = antipentylenetetrazole bioassay in mice; format: in vivo; conditions: Mus musculus, 2 h; for responders at 100 mg/kg: sc, 100 mg/kg compound 30 minutes before fatal dose of pentylenetetrazole (140 mg/kg s.c.), read-out: protection against pentylenetetrazole (animals still alive two hours after administration); for ED50: ip, i.p., pentylenetetrazole 140 mg/kg s.c., read-out: ED50 (dose at which 50% of the treated animals are protected)
# Procedure: To evaluate the anticonvulsant activity the compounds of the present invention have been submitted to the antipentylenetetrazole bioassay in mice. The experiments have been carried out by following essentially the methodology described by Berger in J. Pharm. Exptl. Ther. 104, 468, (1952). More particularly, a fatal dose of pentylenetetrazole (140 mg/kg s.c.) was administered to groups of ten mice each, treated, 30 minutes before the administration of the convulsant agent, with a selected dose (100 mg/kg) of the potential anticonvulsant compound. […] Since the animals of the control group died within 30 minutes, the effectiveness of the compounds tested was expressed as the number of animals of the group which were still alive two hours after the administration of pentylenetetrazole, out of the total number of animals of the group (10). In this experiment the compounds of examples 1,2,8, 9, 10, 11, 13, 14, 15, 16, and 17 were fully effective giving a 100% protection against pentylenetetrazole.
# benzodiazepine receptors = assay: "benzodiazepine receptors" test, displacement of ^3 H-Diazepam from rat brain receptors; format: binding; conditions: ^3 H-Diazepam displacement, read-out: In vitro Ki
# Procedure: The anti-anxiety activity of the compounds of the present invention was shown by submitting the compounds to the "benzodiazepine receptors" test.
# These experiments were carried out by following the method described by H. Mohler and T. Okada in Life Sciences, Vol. 20, 2101-2110 (1977).
# GABA receptor = GABA receptor assay, displacement of ^3 H-GABA; format: binding; conditions: for IC50: ^3 H-GABA displacement; for displacement of ^3 H-GABA from its receptors: at micromolar concentrations
# Procedure: Furthermore some of the compounds of the present invention have been tested in the GABA receptor assay. In this test which was carried out by following the methodology described by M. Herschel and R. J. Baldessarini in Life Sciences, 24, 1849-1854, (1979), the compounds of examples 3 and 15 resulted to be active in displacing more than 50% of ^3 H-GABA from its receptors at micromolar concentrations. […] (As for the GABA's mediating effect of the anxiolytic action of benzodiazepines, see for instance S. J. Enna--Biochemical Pharmacology--30, No. 9, 907-913, (1981)).
structure (smiles),measurement,setting,value
COc1ccc(C(=O)OC2N=C(c3ccccc3Cl)c3c(cn(C)c3C)N(C)C2=O)cc1 (centres unmarked) [Example 10],responders at 100 mg/kg,[1],100%
same,Ki,benzodiazepine receptors,8.1 nM
"Cc1c2c(cn1C)N(C)C(=O)C(OC(=O)CCC(=O)O)N=C2c1ccccc1Cl (centres unmarked) [Example 13, 1,4-butandioic acid 1-[5-(2-chlorophenyl)-1,3,7-trihydro-1,6,7-trimethyl-2-oxo-pyrrolo[3,4-e][1,4]diazepinyl]ester]",responders at 100 mg/kg,[1],100%
"CCOC1N=C(c2ccccc2Cl)c2c(cn(C)c2C)N(C)C1=O (centres unmarked) [Example 16, 5-(2-chlorophenyl)-3-ethoxy-1,7-dihydro-1,6,7-trimethyl-pyrrolo[3,4-e][1,4]diazepin-2(3H)-one hydrochloride hydrate]",responders at 100 mg/kg,[1],100%
same,Ki,benzodiazepine receptors,24.6 nM
"CCOC(=O)CCCNC(=O)CCC(=O)OC1N=C(c2ccccc2)c2c(cn(C)c2C)NC1=O (centres unmarked) [Example 15, hydrochloride]",responders at 100 mg/kg,[1],100%
same,Ki,benzodiazepine receptors,38.9 nM
same,IC50,GABA receptor,3000 nM
same,displacement of ^3 H-GABA from its receptors,GABA receptor,more than 50%
"Cc1c2c(cn1C)N(C)C(=O)C(OC(=O)c1ccccc1)N=C2c1ccccc1Cl (centres unmarked) [Example 1, 5-(2-chlorophenyl)-1,7-dihydro-1,6,7-trimethyl-3-(phenylcarbonyloxy)-pyrrolo[3,4-e][1,4]diazepin-2(3H)-one]",responders at 100 mg/kg,[1],100%
same,Ki,benzodiazepine receptors,6.7 nM
Cc1ccccc1C(=O)OC1N=C(c2ccccc2Cl)c2c(cn(C)c2C)N(C)C1=O (centres unmarked) [Example 3],Ki,benzodiazepine receptors,1.7 nM
same,IC50,GABA receptor,35000 nM
same,displacement of ^3 H-GABA from its receptors,GABA receptor,more than 50%
Cc1c2c(cn1C)N(C)C(=O)C(OC(=O)c1ccc(-c3ccccc3)cc1)N=C2c1ccccc1Cl (centres unmarked) [Example 11],responders at 100 mg/kg,[1],100%
"CCCC(=O)OC1N=C(c2ccccc2)c2c(cn(C)c2C)NC1=O (centres unmarked) [Example 8, 1,7-dihydro-6,7-dimethyl-3-[(1-oxobutyl)oxy]-5-phenyl-pyrrolo[3,4-e][1,4]diazepin-2(3H)-one]",responders at 100 mg/kg,[1],100%
"Cc1c2c(cn1C)N(C)C(=O)C(OC(=O)C(C)C)N=C2c1ccccc1Cl (centres unmarked) [Example 9, 5-(2-chlorophenyl)-1,7-dihydro-1,6,7-trimethyl-3-[(2-methyl-1-oxopropyl)oxy]-pyrrolo[3,4-e][1,4]diazepin-2(3H)-one]",ED50,[1],5 mg/kg
same,responders at 100 mg/kg,[1],100%
same,Ki,benzodiazepine receptors,4.1 nM
"Cc1c2c(cn1C)N(C)C(=O)C(OC(=O)C(C)(C)C)N=C2c1ccccc1Cl (centres unmarked) [Example 2, 5-(2-chlorophenyl)-1,7-dihydro-1,6,7-trimethyl-3-(2,2-dimethylpropanoyloxy)-pyrrolo[3,4-e][1,4]diazepin-2(3H)-one]",responders at 100 mg/kg,[1],100%
same,Ki,benzodiazepine receptors,17.2 nM
"COC1N=C(c2ccccc2Cl)c2c(cn(C)c2C)N(C)C1=O.Cl.O (centres unmarked) [Example 17, 5-(2-chlorophenyl)-1,7-dihydro-3-methoxy-1,6,7-trimethyl-pyrrolo[3,4-e][1,4]diazepin-2(3H)-one hydrochloride hydrate]",ED50,[1],8 mg/kg
same,responders at 100 mg/kg,[1],100%
same,Ki,benzodiazepine receptors,23 nM
"CCOC(=O)CCCNC1N=C(c2ccccc2Cl)c2c(cn(C)c2C)N(C)C1=O (centres unmarked) [Example 18, 5-(2-chlorophenyl)-3-[[3-(ethoxycarbonyl)propyl]amino]-1,7-dihydro-1,6,7-trimethyl-pyrrolo[3,4-e][1,4]diazepin-2(3H)-one]",Ki,benzodiazepine receptors,46.1 nM
"Cc1c2c(cn1C)NC(=O)C(OC(=O)CCC(=O)O)N=C2c1ccccc1 (centres unmarked) [Example 14, 1,4-butandioic acid 1-[1,3,7-trihydro-6,7-dimethyl-2-oxo-5-phenyl-pyrrol[3,4-e][1,4]diazepinyl]ester]",responders at 100 mg/kg,[1],100%
